The numbers were not newly measured in patent publication US20090137477A1, “Treatment of oropharyngeal candidiasis in cancer patients” (BIOALLIANCE PHARMA, priority 2007, published 2009), which cites them from elsewhere.

The test system of this data set is oropharyngeal candidiasis. To be noted: orally 50 mg/day for 14 days.

Structures are written as SMILES.

In the case of `OC(Cn1cncn1)(Cn1cncn1)c1ccc(F)cc1F` [fluconazole], the clinical cure is on record as 21% and the clinical response was 53%.
